≈ marks a conversion by molar mass, not a printed value.
Columns and labels:
Type in all cases: cell-based
[1] = LDH cytotoxic activity assay, FL; settings: human, FL cells (normal cells)
Procedure: (§1) The cell lines were cultured in a cell medium (Dulbecco’s modified eagle’s or RPMI 1640) enriched with 10% (v/v) fetal bovine serum and 2% (v/v) Penicillin-Streptomycin (10,000 U/mL). First, old medium was removed out of the flask when the cells reached approximately 80% confluence. Next, cells were taken from the flasks surface using trypsin-EDTA solution and then subjected to centrifugation. Following, the cell pellet was suspended with fresh media and was inoculated into wells.
(§2) Approximately 5 × 10^3 cells in 100 μL were placed into 96-well plates as triplicates and treated with 25, 50, 75, and 100 μg/mL concentrations of test compounds at 37 °C with 5% CO2 for 24 h. LDH activity was obtained by determining absorbance at 492–630 nm using a microplate reader.

[2] = LDH cytotoxic activity assay, C6; settings: rat, C6 glioma cells; for cytotoxicity at 24 h, 25 μg/mL: C6, 25 μg/mL; for cytotoxicity at 24 h, 50 μg/mL: C6, 50 μg/mL; for cytotoxicity at 24 h, 75 μg/mL: C6, 75 μg/mL; for cytotoxicity at 24 h, 100 μg/mL: C6, 100 μg/mL
Summary of the method: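 About 5 × 10^3 cells per well, in triplicate, exposed to 25, 50, 75 and 100 μg/mL of test compound for 24 h at 37 °C, 5% CO2. Cells grown in DMEM or RPMI 1640 with 10% FBS. LDH activity read as absorbance at 492–630 nm.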

[3] = LDH cytotoxic activity assay, A549; settings: human, A549 cells; for cytotoxicity at 24 h, 25 μg/mL: A549, 25 μg/mL; for cytotoxicity at 24 h, 50 μg/mL: A549, 50 μg/mL; for cytotoxicity at 24 h, 75 μg/mL: A549, 75 μg/mL; for cytotoxicity at 24 h, 100 μg/mL: A549, 100 μg/mL
Procedure: as §1, §2

[4] = LDH cytotoxic activity assay, Hep3B; settings: human, Hep3B cells
Procedure: as §1, §2

[5] = system: HT29; assay: cells; settings: Homo sapiens; for LC50 (concentration giving 50% net cell loss relative to time zero): HT-29, read-out: LC50; for GI50 / IC50 / IC (total growth inhibition): HT-29, HT29, MTT; for IC50: read-out: IC50; for IC (total growth inhibition): read-out: TGI
Summary of the method: (§3)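 Cells were seeded at about 1 × 10^4 per well, brought to 200 μL with medium, and assessed by MTT: 4 h with MTT reagent, formazan dissolved in DMSO with Sorenson's buffer, absorbance read at 560 nm (690 nm reference). IC50 derived from percent inhibition relative to DMSO.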

[6] = system: MCF7; assay: cells; settings: Homo sapiens; for LC50 (concentration causing 50% net cell loss relative to time zero): MCF7, read-out: LC50; for GI50 / IC50 / IC (total growth inhibition): MCF7, MTT; for IC50: read-out: IC50; for IC (total growth inhibition): read-out: TGI
Summary of the method: as §3

[7] = system: Hep3B; assay: cells; settings: Homo sapiens; for GI50 / IC50 / IC (total growth inhibition): MTT; for IC50: read-out: IC50; for IC (total growth inhibition): read-out: TGI; for LC50 (concentration causing 50% net cell loss relative to time zero): read-out: LC50
Summary of the method: as §3

[8] = system: C6 (Rat brain glioma); assay: cells; settings: Rattus norvegicus; for LC50 (concentration giving 50% net cell loss relative to time zero): read-out: LC50; for GI50 / IC50 / IC (total growth inhibition): C6, MTT; for IC50: read-out: IC50; for IC (total growth inhibition): read-out: TGI
Summary of the method: as §3

[9] = LDH cytotoxic activity assay, MCF7; settings: human, MCF7 cells; for cytotoxicity at 24 h, 25 μg/mL: MCF7, 25 μg/mL; for cytotoxicity at 24 h, 50 μg/mL: MCF7, 50 μg/mL; for cytotoxicity at 24 h, 75 μg/mL: MCF7, 75 μg/mL
Procedure: as §1, §2

[10] = as the column head prints, head prints FL

| Structure (SMILES) | cytotoxicity at 24 h, 25 μg/mL ([1]; FL) [%] | cytotoxicity at 24 h, 50 μg/mL ([1]; FL) [%] | cytotoxicity at 24 h, 75 μg/mL ([1]; FL) [%] | cytotoxicity at 24 h, 100 μg/mL ([1]; FL) [%] | cytotoxicity at 24 h, 100 μg/mL [1, 10] [%] | cytotoxicity at 24 h, 25 μg/mL [2] [%] | cytotoxicity at 24 h, 50 μg/mL [2] [%] | cytotoxicity at 24 h, 75 μg/mL [2] [%] | cytotoxicity at 24 h, 100 μg/mL [2] [%] | cytotoxicity at 24 h, 25 μg/mL [3] [%] | cytotoxicity at 24 h, 50 μg/mL [3] [%] | cytotoxicity at 24 h, 75 μg/mL [3] [%] | cytotoxicity at 24 h, 100 μg/mL [3] [%] | cytotoxicity at 24 h, 25 μg/mL [4] [%] | cytotoxicity at 24 h, 50 μg/mL [4] [%] | cytotoxicity at 24 h, 75 μg/mL [4] [%] | cytotoxicity at 24 h, 100 μg/mL [4] [%] | LC50 (concentration giving 50% net cell loss relative to time zero) [5] [µg/mL] | GI50 [5] [µg/mL] | IC50 [5] [µg/mL] | further results |
| --- | --- | --- | --- | --- | --- | --- | --- | --- | --- | --- | --- | --- | --- | --- | --- | --- | --- | --- | --- | --- | --- |
| Cc1ccc(-c2cc(-c3ccncc3)nc(N[C@@H]3O[C@H](CO)[C@@H](O)[C@H](O)[C@H]3O)n2)cc1 [Compound 9, N-[4-(4-methylphenyl)-6-pyridin-4-ylpyrimidin-2-yl]-β-D-glucopyranosylamine] | 18.6 | 30 | 60.6 | 71 | 36.5 | 28.4 | 34.1 | 70.2 | 90.6 | 27.4 | 28.5 | 48.4 | 63.2 | 16.5 | 24.4 | 41.5 | 49.4 | > 500 | 4.3 (≈ 10.1 µM) | > 500 | IC (total growth inhibition) [5]: > 500 µg/mL; LC50 (concentration causing 50% net cell loss relative to time zero) [6]: > 500 µg/mL; GI50 [6]: 1.89 µg/mL (≈ 4.45 µM); IC50 [6]: > 500 µg/mL; IC (total growth inhibition) [6]: > 500 µg/mL; GI50 [7]: 4.61 µg/mL (≈ 10.9 µM); IC50 [7]: > 500 µg/mL; IC (total growth inhibition) [7]: > 500 µg/mL; LC50 (concentration causing 50% net cell loss relative to time zero) [7]: > 500 µg/mL; LC50 (concentration giving 50% net cell loss relative to time zero) [8]: > 500 µg/mL; GI50 [8]: > 500 µg/mL; IC50 [8]: > 500 µg/mL; IC (total growth inhibition) [8]: > 500 µg/mL; cytotoxicity at 24 h, 25 μg/mL [9]: 11.1%; cytotoxicity at 24 h, 50 μg/mL [9]: 19.2%; cytotoxicity at 24 h, 75 μg/mL [9]: 27.5% |
| Cc1ccc(-c2cc(-c3cccnc3)nc(N[C@@H]3O[C@H](CO)[C@@H](O)[C@H](O)[C@H]3O)n2)cc1 [Compound 8, N-[4-(4-methylphenyl)-6-pyridin-3-ylpyrimidin-2-yl]-β-D-glucopyranosylamine] | 20.8 | 34.1 | 41 | 69.9 | 43.5 | 28.4 | 45.4 | 63.2 | 88.7 | 28.1 | 26 | 47.4 | 58.1 | 15.6 | 20.5 | 36.2 | 52.9 | > 500 | 4.43 (≈ 10.4 µM) | 42.5 (≈ 100 µM) | IC (total growth inhibition) [5]: 60 µg/mL; LC50 (concentration causing 50% net cell loss relative to time zero) [6]: > 500 µg/mL; GI50 [6]: 1.7 µg/mL (≈ 4.01 µM); IC50 [6]: > 500 µg/mL; IC (total growth inhibition) [6]: > 500 µg/mL; GI50 [7]: 6.38 µg/mL (≈ 15 µM); IC50 [7]: > 500 µg/mL; IC (total growth inhibition) [7]: > 500 µg/mL; LC50 (concentration causing 50% net cell loss relative to time zero) [7]: > 500 µg/mL; LC50 (concentration giving 50% net cell loss relative to time zero) [8]: 225 µg/mL (≈ 530 µM); GI50 [8]: 8.71 µg/mL (≈ 20.5 µM); IC50 [8]: 49 µg/mL (≈ 115 µM); IC (total growth inhibition) [8]: 30.7 µg/mL; cytotoxicity at 24 h, 25 μg/mL [9]: 10%; cytotoxicity at 24 h, 50 μg/mL [9]: 20.1%; cytotoxicity at 24 h, 75 μg/mL [9]: 32.8% |
| Cc1cccc(-c2cc(-c3ccccn3)nc(N[C@@H]3O[C@H](CO)[C@@H](O)[C@H](O)[C@H]3O)n2)c1 [Compound 4, N-[4-(3-methylphenyl)-6-pyridin-2-ylpyrimidin-2-yl]-β-D-glucopyranosylamine] | 24.4 | 32.4 | 48.3 | 69.5 | 40.2 | 22.1 | 49.3 | 68.9 | 89.2 | 26 | 33.2 | 61.7 | 72.5 | 19.6 | 28.9 | 42 | 64.8 | > 500 | 4.63 (≈ 10.9 µM) | 26.7 (≈ 62.9 µM) | IC (total growth inhibition) [5]: 31.9 µg/mL; LC50 (concentration causing 50% net cell loss relative to time zero) [6]: > 500 µg/mL; GI50 [6]: 3.44 µg/mL (≈ 8.1 µM); IC50 [6]: > 500 µg/mL; IC (total growth inhibition) [6]: > 500 µg/mL; GI50 [7]: 4.4 µg/mL (≈ 10.4 µM); IC50 [7]: 65.5 µg/mL (≈ 154 µM); IC (total growth inhibition) [7]: 67.8 µg/mL; LC50 (concentration causing 50% net cell loss relative to time zero) [7]: > 500 µg/mL; LC50 (concentration giving 50% net cell loss relative to time zero) [8]: 77.4 µg/mL (≈ 182 µM); GI50 [8]: 8.13 µg/mL (≈ 19.2 µM); IC50 [8]: 27.8 µg/mL (≈ 65.4 µM); IC (total growth inhibition) [8]: 20.5 µg/mL; cytotoxicity at 24 h, 25 μg/mL [9]: 11.6%; cytotoxicity at 24 h, 50 μg/mL [9]: 22.5%; cytotoxicity at 24 h, 75 μg/mL [9]: 30% |
| Cc1ccc(-c2cc(-c3ccccn3)nc(N[C@@H]3O[C@H](CO)[C@@H](O)[C@H](O)[C@H]3O)n2)cc1 [Compound 7, N-[4-(4-methylphenyl)-6-pyridin-2-ylpyrimidin-2-yl]-β-D-glucopyranosylamine] | 18.1 | 30.5 | 46.5 | 73.2 | 40.7 | 22 | 48.6 | 69.5 | 85.8 | 24.3 | 24.4 | 27.4 | 40.6 | 9.37 | 17 | 34.3 | 44.5 | > 500 | 2.5 (≈ 5.89 µM) | 29.9 (≈ 70.5 µM) | IC (total growth inhibition) [5]: 49.2 µg/mL; LC50 (concentration causing 50% net cell loss relative to time zero) [6]: > 500 µg/mL; GI50 [6]: 2.04 µg/mL (≈ 4.81 µM); IC50 [6]: > 500 µg/mL; IC (total growth inhibition) [6]: > 500 µg/mL; GI50 [7]: 4.26 µg/mL (≈ 10 µM); IC50 [7]: 183 µg/mL (≈ 430 µM); IC (total growth inhibition) [7]: 194 µg/mL; LC50 (concentration causing 50% net cell loss relative to time zero) [7]: > 500 µg/mL; LC50 (concentration giving 50% net cell loss relative to time zero) [8]: 88.3 µg/mL (≈ 208 µM); GI50 [8]: 8.15 µg/mL (≈ 19.2 µM); IC50 [8]: 29.3 µg/mL (≈ 69 µM); IC (total growth inhibition) [8]: 21.5 µg/mL; cytotoxicity at 24 h, 25 μg/mL [9]: 4.05%; cytotoxicity at 24 h, 50 μg/mL [9]: 20.1%; cytotoxicity at 24 h, 75 μg/mL [9]: 26.6% |
